Entries after “also recorded” stand apart in the source; their conditions may differ.
Test system: Dbp, Cry1, Cry2, Per2 mRNA
Assay: RT-qPCR of clock genes, synchronized U2-OS cells
Assay type: cell-based, human
Details: 10 μM, 72-92 h
Description: FIGS. 3A-3G are an illustration of FORMULA I decreased CRY1 level in synchronized U2-OS cells. Confluent U2-OS cells were synchronized by 2 h treatment with dexamethasone ([…]) and medium replaced with fresh medium containing FORMULA I or solvent (DMSO final 0.5%). Cells were harvested at indicated time points. FIGS. 3A-3B show lysed cells were analyzed via protein immunoblot technique. […] CRY levels in DMSO control divided by that of in FORMULA I treated samples were reported (mean±SEM, n=4). FIGS. 3C-3G show cells were subjected to reverse-transcription-quantitative polymerase chain reaction (RT-qPCR). […] Expression level of genes was normalized according to the expression level of that gene at 72ndh. (Data represent the mean±SEM, n=3 with duplicates ***: p<0.001 **: p<0.005, *: p<0.05 versus DMSO control by two-way ANOVA).
QIAGEN RNeasy Mini Kit was used to isolate the mRNA. Protocol provided by the manufacturer was followed. […] Quantity of RNA was determined by Nanodrop 2000 (Thermo Scientific). […] For quantitative real time PCR (qRT-PCR) analysis cDNAs were further diluted 5-fold (1:5). mRNA expression levels were calculated by qRT-PCR with the SYBR Green. […] 10 seconds denaturation, 57 to 62° C. for 20 seconds annealing (the degree is determined by primer type) and 72° C. for 30 seconds of elongation, 35 cycles. […]

Cc1c(C(=O)N2CCc3ccccc32)oc2ccc3c(c12)C(=O)CC(C)(c1ccc(Cl)cc1)O3 (centres unmarked) [FORMULA I, 11-(4-chlorophenyl)-4-(2,3-dihydro-1H-indole-1-carbonyl)-3,11-dimethyl-5,10,dioxatricyclo[7.4.0.0,2,6,]trideca-1,3,6,8-tetraen-13-one]
Dbp and Per2 mRNA levels: Increase in clock output genes of the Dbp and Per2 mRNA levels; also recorded: increased the level of Dbp and Per2 | peak time and abundance of Cry1, Cry2 (and Dbp) mRNA: changed the peak time without significantly changing their overall abundance; also recorded: changed the peak time of Dbp, Cry1 and Cry2
